According to patent publication US20100183585A1, “METHODS AND COMPOSITIONS FOR TREATING TUMORS AND METASTASES THROUGH THE MODULATION OF LATEXIN” (University of Kentucky Research Foundation, priority 2008, published 2010):

Test system: latexin
Test: latexin mRNA by quantitative real-time PCR in leukemic cell lines after 5-aza-2′-deoxycytidine treatment
Format: cell-based, human
Settings: for latexin gene expression: 2 μM for 4 days
Method: To measure the expression of latexin in leukemic cells, quantitative real-time PCR was performed. Identical numbers (200,000) of cells were used for total RNA extraction using RNeasy Mini kit (QIAGEN, Valencia, Calif.) according to the manufacture's instructions. Isolated total RNA was reverse transcribed into cDNA using random hexamers in TaqMan® reverse transcription solution (PN N8080234), and stored at −20° C. In real-time PCR reactions, primer and probe mix for human latexin were purchased from Applied Biosystems (Foster city, CA, USA). TaqMan® human glyceraldehyde-3-phosphate dehydrogenase (GAPDH) was served as an endogenous control to normalize latexin expression. PCR reactions were set up as per manufacturer's instructions using TaqMan® universal PCR master mix (PN 4304437). Analyses of gene expression were performed in single reporter assays in an ABI PRISM 7700 sequence detection system (PE Biosystems, Foster city, CA, USA).
To examine the correlation of promoter hypermethylation and latexin gene expression, leukemia cell lines shown to have a lack of or decrease in latexin expression were subjected to 5-aza-2′-deoxycytidine treatment. Cells were plated with 2 ? M 5-aza-2′-deoxycytidine (Sigma-Aldrich; St. Louis, Mo.), and incubated for 4 days. The medium and the drug were replaced every 24 hours, and cells were harvested for RNA and DNA extraction 4 days after treatment.

## Nc1ncn([C@H]2C[C@H](O)[C@@H](CO)O2)c(=O)n1 [5-aza-2′-deoxycytidine]
HL-60, KG-1, SupB15 lines
  latexin gene expression: significantly up-regulated
K562, Molt4, CCRF-CEM, J45.01, Jurkat, U937 (completely lacked latexin expression prior to treatment)
  latexin gene expression: reactivated
Human leukemia and lymphoma cell lines treated with the demethylating reagent
  latexin expression: re-initiated or up-regulated
